# Data as given in the supplement of paper PMC8253809.
# Assays:
# SUDIPGXIX [1] = diffuse intrinsic pontine glioma line; test: EC50 (inflection of fitted growth-inhibition curve) (log10 M)
# How it was run: (§1)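 A pin tool was used to add a 10-point threefold dilution series (mean top concentration 35 μM), in triplicate, to patient-derived pHGG/DIPG cell lines and astrocyte controls seeded on 384-well plates coated with 1% Geltrex. After 7 days at 37 °C and 5% CO2 (3 days for iAstro), CellTiter-Glo luminescence was log2-transformed, normalised on each plate to % activity relative to negative (solvent) and positive control wells, and pooled. EC50 and maximal response (yFin) were read from the three- or four-parameter log-logistic fit with the lowest AICc.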
# SUDIPGXIII [2] = diffuse intrinsic pontine glioma line; test: as above
# How it was run: as §1
# DIPGX29 [3] = H3.3 K27M diffuse intrinsic pontine glioma line; test: as above
# How it was run: as §1
# HGGX42 = H3.3 G34R paediatric high-grade glioma line; test: as above
# How it was run: as §1
# HGGX39 [4] = paediatric high-grade glioma line; test: as above
# How it was run: as §1
# SUDIPGIV [5] = diffuse intrinsic pontine glioma line; test: as above
# How it was run: as §1
# iAstro [6] = astrocyte control; test: as above
# How it was run: as §1
# HGGX2 [7] = paediatric high-grade glioma line; test: as above
# How it was run: as §1
# HGGX6 [8] = H3.3 G34R paediatric high-grade glioma line; test: as above
# How it was run: as §1
# SUDIPGXVII [9] = diffuse intrinsic pontine glioma line; test: as above
# How it was run: as §1
# DIPGX7 [10] = H3.3 K27M diffuse intrinsic pontine glioma line; test: as above
# How it was run: as §1
# DIPGX9 [11] = diffuse intrinsic pontine glioma line; test: as above
# How it was run: as §1
# SUDIPGXXI [12] = diffuse intrinsic pontine glioma line; test: as above
# How it was run: as §1
# DIPGX37 [13] = H3.3 K27M diffuse intrinsic pontine glioma line; test: as above
# How it was run: as §1
# SUDIPGVI [14] = diffuse intrinsic pontine glioma line; test: as above
# How it was run: as §1
# HABS [15] = astrocyte control; test: as above
# How it was run: as §1
# SUDIPGXIX [16] = test: area under dose-response curve of % growth inhibition (log2 RLU vs DMSO / staurosporine), 1e-11 to 1e-4 M (% x log10 M); higher = more growth inhibition
# How it was run: (§2)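 A 10-point threefold dilution series, mean top concentration 35 μM, was applied in triplicate to patient-derived pHGG/DIPG lines and astrocytes on 1% Geltrex-coated 384-well plates for 7 days (3 days for iAstro) at 37 °C, 5% CO2. Per-plate % activity between solvent and positive controls was calculated from log2-transformed CellTiter-Glo luminescence. Area under the curve followed from the trapezoid rule on a log-logistic fit, or on a smoothing spline when the sigmoid fit failed.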
# SUDIPGXIII [17] = test: as above
# How it was run: as §2
# DIPGX29 [18] = test: as above
# How it was run: as §2
# HGGX39 [19] = test: as above
# How it was run: as §2
# SUDIPGIV [20] = test: as above
# How it was run: as §2
# iAstro [21] = test: as above
# How it was run: as §2
# HGGX2 [22] = test: as above
# How it was run: as §2
# HGGX6 [23] = test: as above
# How it was run: as §2
# SUDIPGXVII [24] = test: as above
# How it was run: as §2
# DIPGX7 [25] = test: as above
# How it was run: as §2
# DIPGX9 [26] = test: as above
# How it was run: as §2
# SUDIPGXXI [27] = test: as above
# How it was run: as §2
# DIPGX37 [28] = test: as above
# How it was run: as §2
# SUDIPGVI [29] = test: as above
# How it was run: as §2
# HABS [30] = test: as above
# How it was run: as §2
SMILES,EC50 (log10 M) (SUDIPGXIX [1]),EC50 (log10 M) (SUDIPGXIII [2]),EC50 (log10 M) (DIPGX29 [3]),EC50 (log10 M) (HGGX42),EC50 (log10 M) (HGGX39 [4]),EC50 (log10 M) (SUDIPGIV [5]),EC50 (log10 M) (iAstro [6]),EC50 (log10 M) (HGGX2 [7]),EC50 (log10 M) (HGGX6 [8]),EC50 (log10 M) (SUDIPGXVII [9]),EC50 (log10 M) (DIPGX7 [10]),EC50 (log10 M) (DIPGX9 [11]),EC50 (log10 M) (SUDIPGXXI [12]),EC50 (log10 M) (DIPGX37 [13]),EC50 (log10 M) (SUDIPGVI [14]),EC50 (log10 M) (HABS [15]),area under dose-response curve (SUDIPGXIX [16]),area under dose-response curve (SUDIPGXIII [17]),area under dose-response curve (DIPGX29 [18]),area under dose-response curve (HGGX39 [19]),area under dose-response curve (SUDIPGIV [20]),area under dose-response curve (iAstro [21]),area under dose-response curve (HGGX2 [22]),area under dose-response curve (HGGX6 [23]),area under dose-response curve (SUDIPGXVII [24]),area under dose-response curve (DIPGX7 [25]),area under dose-response curve (DIPGX9 [26]),area under dose-response curve (SUDIPGXXI [27]),area under dose-response curve (DIPGX37 [28]),area under dose-response curve (SUDIPGVI [29]),area under dose-response curve (HABS [30])
CC(=O)c1ccc2c(c1)c1cc(C(C)=O)ccc1n2CCNC(C)C [CBL-0137],-6.28,-5.14,-5.42,-5.67,-5.42,-5.61,-6.54,-5.6,-5.37,-5.23,-5.22,-6.06,-6.51,-5.98,-5.09,-6.08,223,123,135,148,156,57.3,134,122,129,137,218,277,199,109,155
O=C(Nc1ccc(Nc2nccc(Nc3cc(C4CCCC4)[nH]n3)n2)cc1)Nc1cccc(C(F)(F)F)c1 [CD532],-6.52,-6.36,-6.34,-6.66,-5.92,-6.47,-6.36,-6.21,-6.3,-6.47,-6.51,-6.65,-7.24,-6.42,-6.5,-5.37,283,235,221,200,276,213,246,202,247,282,305,352,238,272,174
NC1CCC(Nc2cc(-c3cccc(NCc4cccc(F)c4)n3)c(Cl)cn2)CC1 (configuration not stated) [CDK9-IN-2],-6.93,-5.75,-6.87,-7,-5.75,-6.76,-5.35,-5.72,-6.96,-6.67,-6.76,-7.13,-7.4,-6.76,-6.92,-5.73,254,167,206,172,243,135,181,199,232,249,278,326,214,209,180
C[C@@H](Oc1cc(-c2cnn(C3CCNCC3)c2)cnc1N)c1c(Cl)ccc(F)c1Cl [CRIZOTINIB],-5.23,-4.81,-4.83,-5.15,-4.69,-4.85,-4.89,-5.11,-4.67,-4.9,-4.88,-5.11,-5.77,-4.84,-5.01,-4.84,123,74.2,87.6,64,96.9,78,107,59.1,87,91.9,112,200,87.8,112,76.5
COc1ccc(-c2nc(N3CCOCC3)c3sc(CN(C)c4ncc(C(=O)NO)cn4)cc3n2)cn1 [CUDC-907],-6.9,-5.71,-6.81,-7.01,-6.9,-6.82,-6.31,-7,-6.65,-6.74,-7.01,-7.42,-7.9,-6.78,-6.96,-6.29,346,188,298,325,319,181,298,264,294,294,368,470,331,290,299
CN1CCCN(C(=O)c2cccc(-c3ccc(/C=C4/C(=O)Nc5ccc(Cl)cc54)o3)c2)CC1 [CX-6258],-5.48,-5.08,-5.6,-5.75,-5.28,-5.37,-5.49,-5.51,-5.24,-5.25,-5.42,-5.34,-7.11,-5.76,-5.2,-5.1,162,112,179,139,165,168,162,132,137,157,167,330,191,130,124
COc1cccc2c1C(=O)c1c(O)c3c(c(O)c1C2=O)C[C@@](O)(C(=O)CO)C[C@@H]3O[C@H]1C[C@H](N)[C@H](O)[C@H](C)O1 [DOXORUBICIN],-7.02,-5.71,-5.63,-6.5,-5.68,-6.59,-7.21,-6.74,-5.69,-5.78,-6.06,-6.92,-8.4,-6.4,-5.86,-7.02,294,170,169,174,255,78.3,168,147,195,213,293,420,210,159,210
CCCCc1oc2ccc(NS(C)(=O)=O)cc2c1C(=O)c1ccc(OCCCN(CCCC)CCCC)cc1 [DRONEDARONE],-5.12,-4.89,-5.42,-5.41,-5.01,-5.15,-5.29,-5.19,-5.14,-4.97,-5.35,-5.04,-5.77,-5.38,-4.87,-4.77,137,105,148,108,149,134,136,106,119,194,128,225,138,105,91.3
CCOC(=O)CCNc1cc(N2CCc3ccccc3CC2)nc(-c2ccccn2)n1 [GSK-J4],-4.97,-4.82,-4.87,-4.87,-4.98,-5.01,-5.51,-5,-4.85,-4.99,-5,-4.99,-5.9,-4.9,-4.9,-4.98,104,61.1,80.7,62.2,62,97.7,100,63.1,54.8,46.8,103,213,67.7,52.4,71.4
O=C(c1ccc(Nc2nccc(-c3cc4ccccc4s3)n2)cc1)N1CCC(N2CCCC2)CC1 [IKK 16],-4.87,-4.69,-5.53,-5.62,-4.92,-5.15,-5.16,-5.4,-4.83,-4.85,-5.27,-4.84,-5.37,-5.52,-4.85,-4.75,127,107,180,137,132,110,146,88.2,108,155,105,165,183,111,93.1
CC(C)C[C@H](NC(=O)CNC(=O)c1cc(Cl)ccc1Cl)B(O)O [IXAZOMIB],-7.71,-7.52,-6.63,-7.31,-7.57,-7.6,-7.92,-6.73,-7.27,-7.05,-7.71,-7.68,-7.9,-7.94,-7.33,-7.43,327,266,210,302,322,264,242,260,247,302,304,337,315,242,288
"Cc1c(C2CCN(CCc3ccccc3)CC2)noc1-c1ccc(Cl)cc1 [L-741,742]",-4.84,-4.71,-4.99,-4.88,-4.87,-4.89,-5,-4.83,-4.87,-4.87,-4.84,-5.35,-4.91,-4.93,-4.81,-4.83,22.6,21.9,100,96.9,91.7,41.1,35.6,83.5,40.3,118,30.3,145,93.6,36.1,25.7
